The text below walks through data of BindingDB's records for doi:10.1016/s0960-894x(01)00080-4 (Novartis Pharma Research, 2001).

The experiment deals with Epidermal growth factor receptor (Homo sapiens) (UniProt P00533). In words: Tested for inhibitory activity against Epidermal growth factor receptor.
Sequence of Epidermal growth factor receptor (Homo sapiens) (P00533 whole entry, looked up): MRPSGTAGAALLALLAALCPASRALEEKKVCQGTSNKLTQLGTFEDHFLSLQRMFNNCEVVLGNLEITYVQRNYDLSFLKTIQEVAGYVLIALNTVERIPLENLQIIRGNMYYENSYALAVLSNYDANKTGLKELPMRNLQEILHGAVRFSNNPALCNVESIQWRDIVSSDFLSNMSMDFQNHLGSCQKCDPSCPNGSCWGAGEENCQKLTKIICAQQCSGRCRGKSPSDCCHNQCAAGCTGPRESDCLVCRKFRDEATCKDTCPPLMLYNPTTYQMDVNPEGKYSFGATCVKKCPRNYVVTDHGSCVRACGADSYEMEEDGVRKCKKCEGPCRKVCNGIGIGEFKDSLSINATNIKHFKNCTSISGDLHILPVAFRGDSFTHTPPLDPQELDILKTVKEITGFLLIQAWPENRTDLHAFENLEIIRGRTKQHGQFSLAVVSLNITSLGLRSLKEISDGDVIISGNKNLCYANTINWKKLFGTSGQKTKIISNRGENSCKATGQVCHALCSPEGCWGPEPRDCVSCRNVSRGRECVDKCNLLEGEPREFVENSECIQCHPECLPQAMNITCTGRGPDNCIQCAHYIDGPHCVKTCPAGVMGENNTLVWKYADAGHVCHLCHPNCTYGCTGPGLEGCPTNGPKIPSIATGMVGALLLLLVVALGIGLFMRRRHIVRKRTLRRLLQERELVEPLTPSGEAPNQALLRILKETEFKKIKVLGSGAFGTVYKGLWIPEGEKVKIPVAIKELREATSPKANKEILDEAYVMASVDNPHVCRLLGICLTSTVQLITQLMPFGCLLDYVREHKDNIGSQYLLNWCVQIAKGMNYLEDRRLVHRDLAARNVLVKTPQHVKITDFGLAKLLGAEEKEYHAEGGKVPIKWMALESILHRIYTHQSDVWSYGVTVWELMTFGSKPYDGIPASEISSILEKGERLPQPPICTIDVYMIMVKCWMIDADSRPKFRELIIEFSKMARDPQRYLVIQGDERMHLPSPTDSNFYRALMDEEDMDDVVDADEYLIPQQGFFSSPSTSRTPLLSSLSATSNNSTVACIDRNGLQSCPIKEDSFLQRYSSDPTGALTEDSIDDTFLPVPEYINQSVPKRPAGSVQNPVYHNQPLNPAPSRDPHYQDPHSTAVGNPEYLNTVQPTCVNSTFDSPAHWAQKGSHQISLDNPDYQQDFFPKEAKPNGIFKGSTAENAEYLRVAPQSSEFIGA
As usually defined, the IC50 is the concentration needed to halve the response being measured. The compound `Nc1ncnc2c1c(-c1cccc(O)c1)cn2C1CCN(CCO)CC1` [3-(4-amino-7-(1-(2-hydroxyethyl)piperidin-4-yl)-7H-pyrrolo[2,3-d]pyrimidin-5-yl)phenol] returned a concentration for half-maximal inhibition (IC50) of 360 nM.

In turn, `COc1cccc(-c2cn(C3CCN(CCN(C)CCO)CC3)c3ncnc(N)c23)c1` [2-((2-(4-(4-amino-5-(3-methoxyphenyl)-7H-pyrrolo[2,3-d]pyrimidin-7-yl)piperidin-1-yl)ethyl)(methyl)amino)ethanol] displayed a concentration for half-maximal inhibition (IC50) of 340 nM.

`COCCNCCN1CCC(n2cc(-c3cccc(OC)c3)c3c(N)ncnc32)CC1` [7-{1-[2-(2-Methoxy-ethylamino)-ethyl]-piperidin-4-yl}-5-(3-methoxy-phenyl)-7H-pyrrolo[2,3-d]pyrimidin-4-ylamine] registered an IC50 of 620 nM.

Compound `COC(=O)CN1CCC(n2cc(-c3cccc(O)c3)c3c(N)ncnc32)CC1` [{4-[4-Amino-5-(3-hydroxy-phenyl)-pyrrolo[2,3-d]pyrimidin-7-yl]-piperidin-1-yl}-acetic acid methyl ester] had an IC50 of 290 nM.

For the compound `CN(C)C(=O)CN1CCC(n2cc(-c3cccc(O)c3)c3c(N)ncnc32)CC1` [2-{4-[4-Amino-5-(3-hydroxy-phenyl)-pyrrolo[2,3-d]pyrimidin-7-yl]-piperidin-1-yl}-N,N-dimethyl-acetamide], the half-maximal inhibitory concentration (IC50) turned out to be 400 nM.
